{
  "source": "patent EP2921553B1",
  "about": "“Enzymatic reactor system” (Leibniz-Institut für Polymerforschung Dresden e.V., priority 2014, dated 2015)",
  "key": {"[1]": {"target": "T1, S-Acetyl-coenzyme A synthetase (EC 6.2.1.1) from baker's yeast, free enzyme (Saccharomyces cerevisiae, UniProt Q01574)", "T1 construct": "purchased Sigma-Aldrich (Germany)", "T1 sequence (Q01574 1-713)": "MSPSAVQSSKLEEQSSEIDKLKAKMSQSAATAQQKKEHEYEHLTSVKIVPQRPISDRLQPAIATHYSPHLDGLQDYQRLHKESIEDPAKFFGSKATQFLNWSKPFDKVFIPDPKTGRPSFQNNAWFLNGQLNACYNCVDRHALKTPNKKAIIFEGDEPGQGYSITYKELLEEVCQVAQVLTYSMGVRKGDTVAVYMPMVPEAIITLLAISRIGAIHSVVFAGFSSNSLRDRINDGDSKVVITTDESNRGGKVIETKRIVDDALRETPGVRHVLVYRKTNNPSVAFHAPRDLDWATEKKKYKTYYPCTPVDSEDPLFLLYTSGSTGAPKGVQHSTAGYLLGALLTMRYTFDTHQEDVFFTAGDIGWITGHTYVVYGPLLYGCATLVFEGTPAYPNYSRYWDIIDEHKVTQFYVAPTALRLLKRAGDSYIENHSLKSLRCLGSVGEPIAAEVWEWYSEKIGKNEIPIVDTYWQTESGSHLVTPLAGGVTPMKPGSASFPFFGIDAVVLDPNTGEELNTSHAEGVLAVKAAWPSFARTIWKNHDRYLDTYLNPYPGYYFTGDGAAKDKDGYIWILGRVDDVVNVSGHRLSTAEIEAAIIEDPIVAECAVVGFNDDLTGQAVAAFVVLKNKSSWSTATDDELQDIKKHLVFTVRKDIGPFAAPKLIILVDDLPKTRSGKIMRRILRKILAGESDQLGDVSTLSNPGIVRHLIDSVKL", "assay": "Reaction kinetics of free Acetyl CoA-synthetase for acetate (pyrophosphate-molybdate assay, Table 1)", "type": "biochemical", "settings": "acetate substrate at 37°C, ATP 1 mM, CoA 0.5 mM, Lineweaver-Burk plot", "experimental": "(§1) The activity of free acetyl CoA synthetase and their bioconjugates with PNIPAm-AEMA or microgel was studied in borate buffer (0.1 M, pH 8), in presence of 20 mM potassium acetate, 4 mM MgCl2, 4 mM glutathione, 1 mM ATP, and 500 µM coenzyme A. The reaction was terminated by addition of acidic molybdate reagent. The pyrophosphate-molybdate complex formed was further reduced by addition of mercaptoethanol and Eikonogen reagent. The obtained coloured product was quantified by measuring the absorption at 590 nm and pyrophosphate concentration was determined (ε = 2.7 x 10^4 M^-1 cm^-1).\n(§2) One unit of enzyme activity was defined as the amount of enzyme required to form 1 µmol pyrophosphate per min at pH 8 and 37°C. Bradford micro assay with a sensitivity of 1-10 µg/mL was used to determine protein concentration using bovine serum albumin as the standard protein. […]\n(§3) Assuming Michaelis-Menten kinetics for Acetyl CoA-synthetase by the following equations: V = (Vmax [S])/(Km + [S]) [formula] where V is the rate of the reaction, [S] is the concentration of the substrate, Km is the apparent constant, and Vmax is the maximum of reaction velocity. The values for Km and Vmax, were estimated with the help of a Lineweaver-Burk plot for the Michaelis-Menten equation expressed as follows: (1)/(V) = (Km)/(Vmax)[…](1)/([S]) + (1)/(Vmax) [formula] […]"}, "[2]": {"target": "T2, S-Acetyl-coenzyme A synthetase (EC 6.2.1.1) from baker's yeast, Immobilized enzyme (PNIPAm-AEMA) (Saccharomyces cerevisiae, UniProt Q01574)", "T2 construct": "purchased Sigma-Aldrich (Germany)", "T2 sequence (Q01574 1-713)": "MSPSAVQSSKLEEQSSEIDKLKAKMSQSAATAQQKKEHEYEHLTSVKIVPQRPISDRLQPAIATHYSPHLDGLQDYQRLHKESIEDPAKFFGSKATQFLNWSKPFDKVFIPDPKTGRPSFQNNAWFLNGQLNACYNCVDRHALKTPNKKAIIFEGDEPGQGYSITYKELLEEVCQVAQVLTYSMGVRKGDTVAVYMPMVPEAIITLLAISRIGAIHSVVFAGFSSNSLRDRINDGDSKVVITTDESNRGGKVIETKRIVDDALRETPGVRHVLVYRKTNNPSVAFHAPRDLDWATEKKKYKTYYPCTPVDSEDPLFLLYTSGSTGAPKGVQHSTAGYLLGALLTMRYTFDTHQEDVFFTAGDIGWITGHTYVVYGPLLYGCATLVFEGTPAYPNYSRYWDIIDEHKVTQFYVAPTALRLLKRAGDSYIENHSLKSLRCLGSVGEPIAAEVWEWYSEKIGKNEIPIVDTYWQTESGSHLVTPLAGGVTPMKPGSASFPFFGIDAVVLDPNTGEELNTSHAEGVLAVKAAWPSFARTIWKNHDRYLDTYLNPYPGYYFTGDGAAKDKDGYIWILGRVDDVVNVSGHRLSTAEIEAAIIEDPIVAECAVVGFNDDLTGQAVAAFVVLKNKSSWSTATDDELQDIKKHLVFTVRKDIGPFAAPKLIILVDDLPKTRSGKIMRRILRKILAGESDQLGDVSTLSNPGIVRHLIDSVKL", "assay": "Reaction kinetics of PNIPAm-AEMA-immobilized Acetyl CoA-synthetase for acetate (pyrophosphate-molybdate assay, Table 1)", "type": "biochemical", "settings": "acetate substrate at 37°C; ATP 1 mM, CoA 0.5 mM; enzyme covalently immobilized on PNIPAm-AEMA microgel", "experimental": "Acetyl CoA-synthetase was covalently immobilized to PNIPAm-AEMA core-shell microgel using carbodiimide chemistry in 0.1 M Borate buffer at pH 8. Inorganic phosphate present in commercial enzyme preparation (interferes with molybdate assay) was removed by filtration using 30 kDa centrifuge filter tubes (Millipore).\nas §1, with “cm^-1). […]” for “cm^-1).”\nas §3"}, "[3]": {"target": "T1, S-Acetyl-coenzyme A synthetase (EC 6.2.1.1) from baker's yeast, free enzyme", "assay": "Reaction kinetics of free Acetyl CoA-synthetase for acetate (citrate synthase/malate dehydrogenase coupled assay, Table 2)", "type": "biochemical", "settings": "acetate substrate at 37°C, ATP 1 mM, CoA 0.5 mM, Lineweaver-Burk plot", "experimental": "The activity of free and immobilized Acs was determined spectrophotometrically by following acetyl CoA synthesis at 340 nm wavelength by coupling to Citrate synthase (CS) and malate dehydrogenase (MDH) assay.\nThe assay medium composition for enzyme activity consists of 20 mM potassium acetate, 4 mM MgCl, 4 mM glutathione, 1 mM ATP, 500 µM co-enzyme A, 1 mM NAD and 4 mM malate in 100mM Tris Cl buffer pH 8. The acetyl CoA synthesized was correlated to the concentration of NADH formed in a coupled assay using […]. One unit of enzyme activity was defined as the amount of enzyme which is required to form 1 µmol of NADH per min at pH 8 and 37°C.\nThe reaction kinetics of free and immobilized enzymes was studied at various concentrations of acetate (5 mM - 0.3 mM) as a substrate and keeping concentrations of ATP and CoA constant at 1 mM and 0.5 mM, respectively. […]\nas §3"}, "[4]": {"target": "T3, S-Acetyl-coenzyme A synthetase (EC 6.2.1.1) from baker's yeast, Immobilized enzyme (PEI-PNIPAm) (Saccharomyces cerevisiae, UniProt Q01574)", "T3 construct": "purchased Sigma-Aldrich (Germany)", "T3 sequence (Q01574 1-713)": "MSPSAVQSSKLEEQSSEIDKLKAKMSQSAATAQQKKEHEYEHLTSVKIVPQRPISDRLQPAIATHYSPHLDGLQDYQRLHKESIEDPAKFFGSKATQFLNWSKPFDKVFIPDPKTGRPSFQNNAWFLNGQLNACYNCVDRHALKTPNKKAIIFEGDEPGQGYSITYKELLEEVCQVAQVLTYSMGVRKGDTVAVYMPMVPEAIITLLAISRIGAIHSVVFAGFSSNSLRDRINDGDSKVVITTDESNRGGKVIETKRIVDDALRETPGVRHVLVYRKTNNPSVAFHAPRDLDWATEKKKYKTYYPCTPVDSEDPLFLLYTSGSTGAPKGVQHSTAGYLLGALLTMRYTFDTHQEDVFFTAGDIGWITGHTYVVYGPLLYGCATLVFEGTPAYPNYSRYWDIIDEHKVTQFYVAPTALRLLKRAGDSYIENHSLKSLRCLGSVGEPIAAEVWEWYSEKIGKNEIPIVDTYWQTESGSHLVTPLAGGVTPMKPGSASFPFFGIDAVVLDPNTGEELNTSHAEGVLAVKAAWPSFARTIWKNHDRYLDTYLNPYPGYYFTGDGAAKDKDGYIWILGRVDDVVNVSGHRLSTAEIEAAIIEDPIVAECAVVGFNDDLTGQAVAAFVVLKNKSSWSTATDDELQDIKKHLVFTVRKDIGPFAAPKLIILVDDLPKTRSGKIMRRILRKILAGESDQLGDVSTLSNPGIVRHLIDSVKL", "assay": "Reaction kinetics of PEI-PNIPAm-immobilized Acetyl CoA-synthetase for acetate (citrate synthase/malate dehydrogenase coupled assay, Table 2)", "type": "biochemical", "settings": "acetate substrate at 37°C; ATP 1 mM, CoA 0.5 mM; enzyme adsorbed on PEI-PNIPAm microgel", "experimental": "The immobilization of Acetyl CoA-synthetase on PEI-PNIPAm microgel was achieved via adsorption in 0.1 M Tris-CI buffer at pH 8 for 6 h at 4°C. The conjugate was obtained by centrifugation at 12,000 rpm for 15 min at 25°C and subsequently washed with the same buffer to remove non adsorbed enzymes. Using Micro BCA (for protein concentrations lower than 20 µg/mL) assay kits, the amounts of adsorbed enzyme loaded to the microgel was determined by subtracting the residual protein content in the supernatant from the initial protein content. The enzyme and conjugate were stored in 0.1 M Borate buffer containing 1 mM glutathione and 1 mM magnesium chloride pH 8 for further use.\nThe activity of free and immobilized Acs was determined spectrophotometrically by following acetyl CoA synthesis at 340 nm wavelength by coupling to Citrate synthase (CS) and malate dehydrogenase (MDH) assay. […]\nas §3"}, "[5]": {"substrate": "CC(=O)O", "assay": "Reaction kinetics of free Acetyl CoA-synthetase for acetate (pyrophosphate-molybdate assay, Table 1)", "type": "biochemical, Saccharomyces cerevisiae", "settings": "other: acetate substrate at 37°C, acetate 5 mM - 0.3 mM, ATP 1 mM, CoA 0.5 mM, Lineweaver-Burk plot, free enzyme, pH 8.0", "experimental": "as §1, §2, §3"}},
  "data": [
    {"molecule": "CC(=O)O", "note": "[acetate]", "values": [
      {"measurement": "Vmax", "setting": "[1]", "result": "8.5x10^-3 ± 0.4x10^-3 U/min"},
      {"measurement": "Vmax", "setting": "[2]", "result": "5.6 x10^-3± 0.1x10^-3 U/min"},
      {"measurement": "Vmax", "setting": "[3]", "result": "16x10^-3 ± 1 x10^-3 U/min"},
      {"measurement": "Vmax", "setting": "[4]", "result": "44 x10^-3± 2 x10^-3 U/min"}
    ]},
    {"molecule": "S-Acetyl-coenzyme A synthetase (EC 6.2.1.1) from baker's yeast, free enzyme (Saccharomyces cerevisiae S288C) (protein, purchased Sigma-Aldrich (Germany)) MSPSAVQSSKLEEQSSEIDKLKAKMSQSAATAQQKKEHEYEHLTSVKIVPQRPISDRLQPAIATHYSPHLDGLQDYQRLHKESIEDPAKFFGSKATQFLNWSKPFDKVFIPDPKTGRPSFQNNAWFLNGQLNACYNCVDRHALKTPNKKAIIFEGDEPGQGYSITYKELLEEVCQVAQVLTYSMGVRKGDTVAVYMPMVPEAIITLLAISRIGAIHSVVFAGFSSNSLRDRINDGDSKVVITTDESNRGGKVIETKRIVDDALRETPGVRHVLVYRKTNNPSVAFHAPRDLDWATEKKKYKTYYPCTPVDSEDPLFLLYTSGSTGAPKGVQHSTAGYLLGALLTMRYTFDTHQEDVFFTAGDIGWITGHTYVVYGPLLYGCATLVFEGTPAYPNYSRYWDIIDEHKVTQFYVAPTALRLLKRAGDSYIENHSLKSLRCLGSVGEPIAAEVWEWYSEKIGKNEIPIVDTYWQTESGSHLVTPLAGGVTPMKPGSASFPFFGIDAVVLDPNTGEELNTSHAEGVLAVKAAWPSFARTIWKNHDRYLDTYLNPYPGYYFTGDGAAKDKDGYIWILGRVDDVVNVSGHRLSTAEIEAAIIEDPIVAECAVVGFNDDLTGQAVAAFVVLKNKSSWSTATDDELQDIKKHLVFTVRKDIGPFAAPKLIILVDDLPKTRSGKIMRRILRKILAGESDQLGDVSTLSNPGIVRHLIDSVKL", "values": [
      {"measurement": "Km", "setting": "[5]", "result": "170 ± 30", "unit": "µM"}
    ]}
  ]
}
